Assays:
5-HT2A receptor = molecular target: T1, 5-HT2A receptor (Homo sapiens, UniProt P28223); assay: Radioligand binding affinity on 5-HT2A receptor ([3H]-Ketanserin); settings: 5-HT2A receptor protein expressed in HEK-293 cells
T1 construct: expressed in transfected cells; host or cells: HEK-293
Protocol: (§1) (1) Determination of the affinity of the diarylo[a,g]quinolizines of formula (I) and derivatives thereof on dopamine D1, dopamine D2, 5-HT1A and 5-HT2A receptors.
(§2) The compound of the invention at different concentrations (10^−5 M-10^−11 M), an isotope receptor ligand and a receptor protein were loaded into a reaction tube, incubated at 30° C. in a water bath for 60 min, and then terminated in a refrigerator. The mixture was filtered through suction filtration using GF/C glass fiber paper on a Millipore filter (millipore) cell sample collector, and dried. The resulting sample was placed into a 0.5 mL tube, added with 500 μL of liquid scintillation fluid, and counted for measuring the intensity of radioativity.
For 5-HT2A receptor: isotope receptor ligand [3H]-Ketanserin; 5-HT2A receptor protein expressed in HEK-293 cells;
(§3) Firstly, the above […] were dissolved in DMSO and then diluted with double distilled water to the appropriate concentration (10^−5 M-10^−11 M).
(§4) (+) Butaclamo was purchased from RBI Company, GF/C glass fiber filter paper was purchased from Whatman Co., liquid scintillation fluid (dopamine D1, D2 receptors)/liposoluble scintillation fluid (5-HT1A. 5-HT2A receptor), Beckman LS-6500 multi-function liquid scintillation counter.

5-HT1A receptor = molecular target: T2, 5-HT1A receptor (Homo sapiens, UniProt P08908); assay: Radioligand binding affinity on 5-HT1A receptor ([3H]8-OH-DPAT); settings: 5-HT1A receptor protein expressed in HEK-293 cells
T2 sequence (P08908 1-422): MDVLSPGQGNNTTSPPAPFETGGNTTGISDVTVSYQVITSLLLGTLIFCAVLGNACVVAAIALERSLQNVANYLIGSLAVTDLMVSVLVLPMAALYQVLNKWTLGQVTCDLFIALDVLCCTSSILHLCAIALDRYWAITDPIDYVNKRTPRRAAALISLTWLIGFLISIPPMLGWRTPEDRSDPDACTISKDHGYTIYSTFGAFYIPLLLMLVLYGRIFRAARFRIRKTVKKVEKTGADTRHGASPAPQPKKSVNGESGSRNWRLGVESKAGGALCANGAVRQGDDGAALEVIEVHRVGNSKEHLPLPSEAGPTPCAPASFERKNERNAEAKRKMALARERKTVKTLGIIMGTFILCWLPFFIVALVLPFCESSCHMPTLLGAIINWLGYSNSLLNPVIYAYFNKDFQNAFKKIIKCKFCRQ
Protocol: as §1, §2
For 5-HT1A receptor: isotope receptor ligand [3H]8-OH-DPAT; 5-HT1A receptor protein expressed in HEK-293 cells;
as §3, §4

dopamine D1 receptor = dopamine D1 receptor (Macaca mulatta, UniProt O77680); assay: Radioligand binding affinity on dopamine D1 receptor ([3H]-SCH23390); settings: D1 receptor protein expressed in HEK-293 cells
Protocol: as §2, §3, §4

dopamine D2 receptor = dopamine D2 receptor (Rattus norvegicus, UniProt P61169); assay: Radioligand binding affinity on dopamine D2 receptor ([3H]Spiperone); settings: D2 receptor protein expressed in HEK-293 cells
Protocol: as §2, §3, §4

Chain of dopamine D1 receptor (O77680 whole entry): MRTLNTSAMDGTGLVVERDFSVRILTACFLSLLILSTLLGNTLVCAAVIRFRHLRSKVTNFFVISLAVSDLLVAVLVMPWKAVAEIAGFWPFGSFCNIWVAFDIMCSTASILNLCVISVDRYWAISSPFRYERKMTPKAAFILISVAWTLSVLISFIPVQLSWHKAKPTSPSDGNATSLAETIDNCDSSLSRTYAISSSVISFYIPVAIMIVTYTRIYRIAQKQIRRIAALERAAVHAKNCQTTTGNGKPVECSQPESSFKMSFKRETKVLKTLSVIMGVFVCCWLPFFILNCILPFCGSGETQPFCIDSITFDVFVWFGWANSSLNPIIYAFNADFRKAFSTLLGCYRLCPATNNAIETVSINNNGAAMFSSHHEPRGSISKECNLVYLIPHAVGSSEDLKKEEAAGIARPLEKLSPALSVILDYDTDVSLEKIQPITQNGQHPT
Chain of dopamine D2 receptor (P61169 whole entry): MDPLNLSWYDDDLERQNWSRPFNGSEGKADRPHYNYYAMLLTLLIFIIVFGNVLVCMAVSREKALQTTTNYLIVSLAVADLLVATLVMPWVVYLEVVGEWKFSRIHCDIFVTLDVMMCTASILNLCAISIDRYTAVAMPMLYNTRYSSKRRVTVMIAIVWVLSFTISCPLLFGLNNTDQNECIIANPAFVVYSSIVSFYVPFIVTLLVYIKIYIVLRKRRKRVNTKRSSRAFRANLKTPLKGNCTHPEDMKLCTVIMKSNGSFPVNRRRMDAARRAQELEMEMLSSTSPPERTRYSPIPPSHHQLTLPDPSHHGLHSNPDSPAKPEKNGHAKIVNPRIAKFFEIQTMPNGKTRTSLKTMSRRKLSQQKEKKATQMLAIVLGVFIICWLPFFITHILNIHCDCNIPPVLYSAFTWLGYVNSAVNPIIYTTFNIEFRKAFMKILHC
T1 sequence (P28223 whole entry): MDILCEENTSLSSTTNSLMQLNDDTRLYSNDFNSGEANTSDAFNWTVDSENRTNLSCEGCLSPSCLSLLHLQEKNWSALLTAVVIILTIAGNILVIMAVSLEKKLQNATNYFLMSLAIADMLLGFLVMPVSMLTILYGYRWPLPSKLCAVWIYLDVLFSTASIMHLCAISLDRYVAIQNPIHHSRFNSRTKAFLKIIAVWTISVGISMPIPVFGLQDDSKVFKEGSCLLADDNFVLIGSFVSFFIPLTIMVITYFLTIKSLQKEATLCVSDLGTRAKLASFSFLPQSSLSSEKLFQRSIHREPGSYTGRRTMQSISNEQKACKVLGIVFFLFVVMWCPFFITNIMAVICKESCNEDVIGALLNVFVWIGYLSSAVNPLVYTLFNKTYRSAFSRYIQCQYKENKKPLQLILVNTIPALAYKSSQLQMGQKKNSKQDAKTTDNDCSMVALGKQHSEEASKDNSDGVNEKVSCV

| Compound | 5-HT2A receptor inhibition % (5-HT2A receptor) [%] | 5-HT1A receptor inhibition % (5-HT1A receptor) [%] | IC50 (5-HT1A receptor) [nM] | Ki (5-HT1A receptor) [nM] | D1 receptor inhibition % (dopamine D1 receptor) [%] | IC50 (dopamine D1 receptor) [nM] | Ki (dopamine D1 receptor) [nM] | IC50 (5-HT2A receptor) [nM] | Ki (5-HT2A receptor) [nM] | D2 receptor inhibition % (dopamine D2 receptor) [%] | IC50 (dopamine D2 receptor) [nM] | Ki (dopamine D2 receptor) [nM] |
| --- | --- | --- | --- | --- | --- | --- | --- | --- | --- | --- | --- | --- |
| COc1cc2c(cc1OC)CN1CCc3c([nH]c4ccccc34)[C@@H]1C2 [AI001, (S)-2,3-dimethoxy-5,7,8,13,13b,14-hexahydroindolo [2′,3′:3,4]pyrido[1,2-b]isoquinoline] | 50.46 | 88.22 | 911 ± 130 | 728 ± 104 |  |  |  |  |  |  |  |  |
| COc1c(O)ccc2c1CN1CCc3sc(C)cc3[C@@H]1C2 [AS003, (S)-2-methyl-8-methoxy-9-hydroxy-4,7,12,12a-tetrahydro-5H-benzo[g]thieno[3,2-a]quinolizine] | 90.43 | 91.91 | 514 ± 111 | 405 ± 87.1 | 99.80 | 74 ± 4.3 | 37.9 ± 2.21 | 2230 ± 46.5 | 1070 ± 22.4 | 40.31 |  |  |
| COc1c(O)ccc2c1CN1CCc3sc(C)cc3[C@H]1C2 [AS004, (R)-2-methyl-8-methoxy-9-hydroxy-4,7,12,12a-tetrahydro-5H-benzo[g]thieno[3,2-a]quinolizine] | 44.24 | 51.69 |  |  | 86.32 | 230 ± 44.8 | 115 ± 22.4 |  |  | 6.97 |  |  |
| CCc1cc2c(s1)CCN1Cc3c(ccc(O)c3OC)C[C@@H]21 [AS005, (S)-2-ethyl-8-methoxy-9-hydroxy-4,7,12,12a-tetrahydro-5H-benzo[g]thieno[3,2-a]quinolizine] | 76.11 | 98.58 | 162 ± 3.8 | 130 ± 3.03 | 98.23 | 86.8 ± 11.3 | 47.6 ± 6.18 |  |  | 62.98 |  |  |
| COc1ccc2c(c1OC)CN1CCc3sccc3[C@@H]1C2 [AS022, (S)-8,9-dimethoxy-4,7,12,12a-tetrahydro-5H-benzo [g]thieno[3,2-a]quinolizine] | 32.31 | 6.60 |  |  | 69.25 |  |  |  |  | 5.21 |  |  |
| COc1ccc2c(c1OC)CN1CCc3sc(C)cc3[C@@H]1C2 [AS023, (S)-2-methyl-8,9-dimethoxy-4,7,12,12a-tetrahydro-5H-benzo[g]thieno[3,2-a]quinolizine] | 60.08 | 76.45 |  |  | 89.62 | 714 ± 15.7 | 357 ± 7.83 |  |  | 22.17 |  |  |
| COc1ccc(OC)c2c1C[C@H]1c3cc(C)sc3CCN1C2 [AS032, (S)-2-methyl-8,11-dimethoxy-4,7,12,12a-tetrahydro-5H-benzo[g]thieno[3,2-a]quinolizine] | 30.01 | 74.09 |  |  | 96.00 | 416 ± 26.9 | 159 ± 28.9 |  |  | 13.75 |  |  |
| COc1c(N)ccc2c1CN1CCc3sccc3[C@@H]1C2 [AS050, (S)-8-methoxy-9-amino-4,7,12,12a-tetrahydro-5H-benzo[g]thieno[3,2-a]quinolizine] | 74.25 | 49.26 |  |  | 99.02 | 1520 ± 357 | 685 ± 72.2 |  |  | 22.63 |  |  |
| COc1c(NC(C)=O)ccc2c1CN1CCc3sccc3[C@@H]1C2 [AS051, (S)-8-methoxy-9-acetylamino-4,7,12,12a-tetrahydro-5H-benzo[g]thieno[3,2-a]quinolizine] | 46.59 | 33.90 |  |  | 76.38 |  |  |  |  | 1.29 |  |  |
| COc1cc2c(cc1O)[C@@H]1Cc3sccc3CN1CC2 [DS001, (S)-2-hydroxy-3-methoxy-5,8,12,12a-tetrahydro-6H-benzo[a]thieno[3,2-g]quinolizine] |  |  |  |  |  | 172 ± 8.49 | 87 ± 4.3 |  |  |  | 396 ± 68.2 | 88 ± 15.2 |
| CCc1cc2c(s1)C[C@H]1c3cc(O)c(OC)cc3CCN1C2 [DS003, (S)-2-hydroxy-3-methoxy-10-ethyl-5,8,12,12a-tetrahydro-6H-benzo[a]thieno[3,2-g]quinolizine] | 45.15 | 92.10 | 1250 ± 237 | 998 ± 190 | 98.16 | 48.1 ± 0.68 | 26.3 ± 0.37 |  |  | 98.50 | 180 ± 16.8 | 40.8 ± 3.8 |
| CCCc1cc2c(s1)C[C@H]1c3cc(O)c(OC)cc3CCN1C2 [DS005, (S)-2-hydroxy-3-methoxy-10-n-propyl-5,8,12,12a-tetrahydro-6H-benzo[a]thieno[3,2-g]quinolizine] | 29.55 | 85.33 | 2460 ± 286 | 1970 ± 229 | 96.74 | 113 ± 12.6 | 61.7 ± 6.88 |  |  | 96.31 | 171 ± 9.5 | 38.6 ± 2.15 |
| COc1cc2c(cc1O)[C@@H]1Cc3sc(CC(C)C)cc3CN1CC2 [DS006, (S)-2-hydroxy-3-methoxy-10-(2-methylpropyl)-5,8, 12,12a-tetrahydro-6H-benzo[a]thieno[3,2-g]quinolizine] | 50.31 | 83.71 |  |  |  |  |  |  |  |  |  |  |
| CCCCc1cc2c(s1)C[C@H]1c3cc(O)c(OC)cc3CCN1C2 [DS007, (S)-2-hydroxy-3-methoxy-10-n-butyl-5,8,12,12a-tetrahydro-6H-benzo[a]thieno[3,2-g]quinolizine] | 53.34 | 87.03 | 1080 ± 96.7 | 864 ± 77.3 | 97.62 | 113 ± 13 | 62.2 ± 7.13 |  |  | 99.53 | 76.3 ± 8.46 | 17.6 ± 1.95 |
| COc1cc2c(cc1O)[C@@H]1Cc3sc(CCC(C)C)cc3CN1CC2 [DS008, (S)-2-hydroxy-3-methoxy-10-(3-methylbutyl)-5,8,12, 12a-tetrahydro-6H-benzo[a]thieno[3,2-g]quinolizine] |  |  |  |  | 88.78 |  |  |  |  | 90.45 | 239 ± 14.7 | 79.5 ± 4.83 |
| COc1cc2c(cc1O)[C@@H]1Cc3sc(CCCl)cc3CN1CC2 [DS013, (S)-2-hydroxy-3-methoxy-10-(2-chloroethyl)-5,8,12, 12a-tetrahydro-6H-benzo[a]thieno[3,2-g]quinolizine] | 34.81 | 89.84 | 692 ± 102 | 553 ± 81.6 | 98.64 |  | 16.4 ± 2.81 |  |  | 98.37 | 146 ± 7.19 | 34.4 ± 2.72 |
| COc1cc2c(cc1O)[C@@H]1Cc3sc(CCCCl)cc3CN1CC2 [DS015, (S)-2-hydroxy-3-methoxy-10-(3-chloropropyl)-5,8, 12,12a-tetrahydro-6H-benzo[a]thieno[3,2-g]quinolizine] |  | 92.24 | 148 ± 28.6 | 119 ± 23 | 96.10 | 144 ± 5.35 | 77 ± 2.85 |  |  | 97.19 | 55.1 ± 6.89 | 18.4 ± 2.3 |
| COc1cc2c(cc1O)[C@@H]1Cc3sc(CCCCCl)cc3CN1CC2 [DS016, (S)-2-hydroxy-3-methoxy-10-(4-chlorobutyl)-5,8,12, 12a-tetrahydro-6H-benzo[a]thieno[3,2-g]quinolizine] |  |  |  |  | 95.84 | 297 ± 20.1 | 158 ± 10.7 |  |  | 93.54 | 150 ± 23.4 | 49.9 ± 7.8 |

Reference: patent US9751882B2, “Diaryl[A, G]quinolizidine compound, preparation method therefor, pharmaceutical composition, and uses thereof” (SHANGHAI INSTITUTE OF MATERIA MEDICA, CHINESE ACADEMY OF …, priority 2012, dated 2017)
